Series [1] deals with T1, R. capsulatus FDH (RcFDH), metal-containing formate dehydrogenase (Rhodobacter capsulatus, UniProt D5AQH0).
T1 construct: gene fdhA
Put plainly: inhibition of the back reaction (CO2 reduction) at […] CS2, […] nm. Type of series: biochemical.

In series [2] the target is T1, R. capsulatus FDH (RcFDH), metal-containing formate dehydrogenase. Put plainly: steady-state inhibition kinetics of formate oxidation, benzyl viologen as electron acceptor, […] nm. Type of series: biochemical.
Substrate in series [3]: O=CO
Put plainly: purified protein. The settings on record: bis-MGD molybdenum cofactor, [4Fe-4S] cluster; NAD+ active site, molybdenum centre. It counts as biochemical, Rhodobacter capsulatus.

Substrate in series [4]: O=CS
Put plainly: purified protein. Type of series: biochemical, Rhodobacter capsulatus. The settings on record: bis-MGD molybdenum cofactor, [4Fe-4S] cluster; NAD+.

T1 sequence (D5AQH1 1-500 partner, one chain of several): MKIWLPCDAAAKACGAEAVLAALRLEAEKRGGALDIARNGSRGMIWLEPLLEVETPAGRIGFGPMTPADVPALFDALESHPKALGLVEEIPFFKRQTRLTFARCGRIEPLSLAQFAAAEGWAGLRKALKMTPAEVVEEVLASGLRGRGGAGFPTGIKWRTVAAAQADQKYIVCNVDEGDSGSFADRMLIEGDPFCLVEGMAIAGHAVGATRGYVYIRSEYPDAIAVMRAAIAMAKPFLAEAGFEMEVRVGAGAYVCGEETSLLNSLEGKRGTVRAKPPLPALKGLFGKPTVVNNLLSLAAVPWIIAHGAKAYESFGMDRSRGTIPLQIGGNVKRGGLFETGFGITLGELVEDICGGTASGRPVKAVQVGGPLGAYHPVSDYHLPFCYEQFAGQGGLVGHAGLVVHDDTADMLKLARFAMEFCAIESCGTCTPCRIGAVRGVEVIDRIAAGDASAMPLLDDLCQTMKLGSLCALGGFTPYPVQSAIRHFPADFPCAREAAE
T1 sequence (D5AQH2 1-150 partner, one chain of several): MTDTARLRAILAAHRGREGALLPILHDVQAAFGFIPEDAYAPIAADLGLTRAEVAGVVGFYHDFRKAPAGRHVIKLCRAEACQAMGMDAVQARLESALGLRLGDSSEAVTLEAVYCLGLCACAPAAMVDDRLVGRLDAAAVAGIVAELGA
T1 sequence (D5AQG8 1-71 partner, one chain of several): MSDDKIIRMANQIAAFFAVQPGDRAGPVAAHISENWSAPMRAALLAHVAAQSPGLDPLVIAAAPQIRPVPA

Take `S=C=S` [carbon disulfide]: the “inhibition of the back reaction (CO2 reduction) at 150 mM CS2, 340 nm” value in series [1] is “interfere with the active site and/or the hydrophobic channel and, therefore, inhibits the reduction in CO2 when present”.

Broadly, the Ki is a measure of affinity in units of concentration, obtained from inhibition or displacement. For the molecule `S=CS` [dithioformate], the Ki in series [2] came to 7.5 mM.

B1: R. capsulatus FDH (RcFDH), metal-containing formate dehydrogenase (Rhodobacter capsulatus SB 1003) (protein)
chain: MKDLIIPPLDWTQDMGTPKREGAPVHLTIDGVEVTVPAGTSVLRAAAEAGISIPKLCATDNVEPVGSCRLCMVEIEGMRGTPTSCTTPVAPGMRVHTQTPQLQKLRRGVMELYISDHPLDCLTCAANGDCELQDMAGAVGLREVRYQAKDTHFARRDATGPNPRYIPKDNSNPYFSYDPAKCIVCMRCVRACEEVQGTFALTVMGRGFDARISPAAPDFLSSDCVSCGACVQACPTATLVEKSVERIGTPERKVVTTCAYCGVGCSFEAHMLGDQLVRMVPWKGGAANRGHSCVKGRFAYGYATHQDRILKPMIRDKITDPWREVNWTEALDFTATRLRALRDSHGADALGVITSSRCTNEETYLVQKLARAVFGTNNTDTCARVCHSPTGYGLKQTFGTSAGTQDFDSVEETDLALVIGANPTDGHPVFASRLRKRLRAGAKLIVVDPRRIDLLNTPHRGEAWHLQLKPGTNVAVMTAMAHVIVTEQIFDKRFIGDRCDWDEWADYAEFVANPEYAPEAVESLTGVPAGLLRQAARAYAAAPNAAIYYGLGVTEHSQGSTTVIAIANLAMMTGNIGRPGVGVNPLRGQNNVQGSCDMGSFPHEFPGYRHVSDDATRGLFERTWGVTLSSEPGLRIPNMLDAAVEGRFKALYVQGEDILQSDPDTRHVSAGLAAMDLVIVHDLFLNETANYAHVFLPGSTFLEKDGTFTNAERRINRVRRVMAPKAGFADWEVTQMLANALGAGWHYTHPSEIMAEIAATTPGFAAVTYEMLDARGSVQWPCNEKAPEGSPIMHVEGFVRGKGRFIRTAYLPTDEKTGPRFPLLLTTGRILSQYNVGAQTRRTENTVWHGEDRLEIHPTDAETRGIRDGDWVRLASRAGETTLRATVTDRVSPGVVYTTFHHPDTQANVVTTDTSDWATNCPEYKVTAVQVAASNGPSDWQQDYAAQAAAARRIEAAE
As usually defined, the Km is the concentration of substrate that gives half-maximal velocity. With B1, the results for the Km in series [3] and in series [4] were 145 ± 25 µM and 3300 ± 240 µM, respectively.

Source of the values: article PMC9962302, “The Mechanism of Metal-Containing Formate Dehydrogenases Revisited: The Formation of Bicarbonate as Product Intermediate Provides Evidence for an Oxygen Atom Transfer Mechanism” (Molecules, 2023).
